Like-named read-outs stand apart in the source and are kept apart here.
Tests used:
[1] = tested on: panel of 60 human tumor cell lines; experiment: panel of 60 human tumor cell lines, whole panel or sub-panel (single concentration screen, summaries); format: cell-based; conditions: range over 6a and 6e
[2] = hydrolytic stability in human plasma; format: in vitro ADME
HL-60(TB) [3] = experiment: cells; conditions: Homo sapiens, HL-60
CCRF-CEM [4] = experiment: panel of 60 human tumor cell lines, growth inhibition (Leukemia); conditions: Homo sapiens
K-562 [5] = experiment: as above; conditions: Homo sapiens, K562
MOLT-4 [6] = experiment: as above; conditions: Homo sapiens, MOLT-4
SR = experiment: as above; conditions: Homo sapiens
LOX IMVI [7] = experiment: panel of 60 human tumor cell lines, growth inhibition (Melanoma); conditions: Homo sapiens, 5-dose assay
MALME-3M = experiment: as above; conditions: Homo sapiens, Malme-3M
M14 [8] = experiment: as above; conditions: Homo sapiens, M14
MDA-MB-435 [9] = experiment: as above; conditions: Homo sapiens, MDA-MB-435
RPMI-8226 [10] = experiment: panel of 60 human tumor cell lines, growth inhibition (Leukemia); conditions: Homo sapiens, RPMI-8226
SF-539 [11] = experiment: panel of 60 human tumor cell lines, growth inhibition (CNS Cancer); conditions: Homo sapiens, SF-539
SNB-75 = experiment: as above; conditions: Homo sapiens, SNB-75
COLO 205 [12] = experiment: panel of 60 human tumor cell lines, growth inhibition (Colon Cancer); conditions: Homo sapiens, COLO 205
HCT-116 [13] = experiment: as above; conditions: Homo sapiens, HCT-116, HCT-116; 5-dose assay
SW-620 [14] = experiment: as above; conditions: Homo sapiens, SW-620, SW-620; 5-dose assay
ACHN [15] = experiment: panel of 60 human tumor cell lines, growth inhibition (Renal Cancer); conditions: Homo sapiens
CAKI-1 [16] = experiment: as above; conditions: Homo sapiens, CAKI-1
RXF 393 [17] = experiment: as above; conditions: Homo sapiens, RXF 393, RXF 393; 5-dose assay
TK-10 [18] = experiment: as above; conditions: Homo sapiens, TK-10, TK-10; 5-dose assay
MCF7 [19] = experiment: panel of 60 human tumor cell lines, growth inhibition (Breast Cancer); conditions: Homo sapiens, MCF7, MCF7; 5-dose assay
BT-549 [20] = experiment: as above; conditions: Homo sapiens, BT-549
T-47D [21] = experiment: as above; conditions: Homo sapiens, T47D
MDA-MB-468 = experiment: as above; conditions: Homo sapiens, MDA-MB-468
IGROV1 [22] = experiment: panel of 60 human tumor cell lines, growth inhibition (Ovarian Cancer); conditions: Homo sapiens, IGROV-1
OVCAR-3 [23] = experiment: as above; conditions: Homo sapiens, OVCAR-3
DU-145 [24] = experiment: panel of 60 human tumor cell lines, growth inhibition (Prostate Cancer); conditions: Homo sapiens, DU-145
HOP-92 [25] = experiment: panel of 60 human tumor cell lines, growth inhibition (Non-Small Cell Lung Cancer); conditions: Homo sapiens, HOP-92, HOP-92; 5-dose assay
NCI-H522 [26] = experiment: as above; conditions: Homo sapiens, NCI-H522
CCRF-CEM [27] = conditions: values obtained from NCI database; cited from earlier work
HL-60(TB) [28] = conditions: values obtained from NCI database; cited from earlier work
K-562 [29] = conditions: values obtained from NCI database; cited from earlier work
MOLT-4 [30] = conditions: values obtained from NCI database; cited from earlier work
HOP-92 [31] = conditions: values obtained from NCI database; cited from earlier work
NCI-H522 [32] = conditions: values obtained from NCI database; cited from earlier work
COLO 205 [33] = conditions: values obtained from NCI database; cited from earlier work
HCT-116 [34] = conditions: values obtained from NCI database; cited from earlier work
SW-620 [35] = conditions: values obtained from NCI database; cited from earlier work
SF-539 [36] = conditions: values obtained from NCI database; cited from earlier work
LOX IMVI [37] = conditions: values obtained from NCI database; cited from earlier work
M14 [38] = conditions: values obtained from NCI database; cited from earlier work
MDA-MB-435 [39] = conditions: values obtained from NCI database; cited from earlier work
IGROV1 [40] = conditions: values obtained from NCI database; cited from earlier work
OVCAR-3 [41] = conditions: values obtained from NCI database; cited from earlier work
ACHN [42] = conditions: values obtained from NCI database; cited from earlier work
CAKI-1 [43] = conditions: values obtained from NCI database; cited from earlier work
RXF 393 [44] = conditions: values obtained from NCI database; cited from earlier work
TK-10 [45] = conditions: values obtained from NCI database; cited from earlier work
DU-145 [46] = conditions: values obtained from NCI database; cited from earlier work
MCF7 [47] = conditions: values obtained from NCI database; cited from earlier work
BT-549 [48] = conditions: values obtained from NCI database; cited from earlier work
T-47D [49] = conditions: values obtained from NCI database; cited from earlier work
RPMI-8226 [50] = conditions: values obtained from NCI database; cited from earlier work
AML 052308 cells [51] = tested on: AML 052308 cells
Description: (§1) Derivatives were screened for antileukemic activity against AML cells in culture (See FIGS. 1-7).

M9 ENL cells = experiment: antileukemic activity, cell viability; conditions: M9 ENL cell line
Protocol: Carbamate and carbonate derivatives of MMB were also screened for activity against M9 ENL cells at concentrations of 5, 10 and 20 μM (FIG. 10). […] Additionally, succinic amide derivatives of MMB were screened for activity against M9 ENL cells at concentrations of 5, 10 and 20 μM (FIG. 11).

[52] = tested on: AML 123009 primary isolate; experiment: antileukemic activity, cell viability
[53] = tested on: AML 100510 primary isolate; experiment: antileukemic activity, cell viability
AML 052308 cells [54] = experiment: cells; conditions: read-out: LC50
Description: as §1

C=C1C(=O)O[C@H]2[C@H]1CC/C(COC(=O)N1CCC(F)(F)CC1)=C\CC[C@@]1(C)O[C@@H]21 [6a, ((1aR,7aS,10aS,10bS,E)-1a-methyl-8-methylene-9-oxo-1a,2,3,6,7,7a,8,9,10a,10b-decahydrooxireno[2′,3′:9,10]cyclodeca[1,2-b]furan-5-yl)methyl-4,4-difluoropiperidine-1-carboxylate]
GI50 ([1]; sub-panel breast cancer): 570 to 3070 nM
GI50 ([1]; sub-panel colon cancer): 1120 to 2060 nM
GI50 ([1]; sub-panel melanoma): 460 to 2840 nM
GI50 ([1]; sub-panel non-small cell lung cancer): 650 to 1450 nM
GI50 ([1]; sub-panel renal cancer): 900 to 2600 nM
half-life [2]: 8 h
melting point: 150 °C
GI50 (HL-60(TB) [3]): 2040 nM
GI50 (CCRF-CEM [4]; 5-dose assay): 680 nM
GI50 (CCRF-CEM [4]; leukemia cell line CCRF-CEM): 680 nM
GI50 (K-562 [5]): 3450 nM
GI50 (MOLT-4 [6]): 2050 nM
GI50 (SR): 1380 nM
GI50 (LOX IMVI [7]): 2230 nM
GI50 (MALME-3M): 1900 nM
GI50 (M14 [8]): 2840 nM
GI50 (MDA-MB-435 [9]): 460 nM
GI50 (RPMI-8226 [10]): 1980 nM
GI50 (SF-539 [11]): 1980 nM
GI50 (SNB-75): 6130 nM
GI50 (COLO 205 [12]): 2060 nM
GI50 (HCT-116 [13]): 1410 nM
GI50 (SW-620 [14]): 1460 nM
GI50 (ACHN [15]): 1790 nM
GI50 (CAKI-1 [16]): 2030 nM
GI50 (RXF 393 [17]): 1200 nM
GI50 (TK-10 [18]): 2600 nM
GI50 (MCF7 [19]): 1620 nM
GI50 (BT-549 [20]): 2690 nM
GI50 (T-47D [21]): 3070 nM
GI50 (MDA-MB-468): 570 nM
GI50 (IGROV1 [22]): 2310 nM
GI50 (OVCAR-3 [23]): 1690 nM
GI50 (DU-145 [24]): 2440 nM
GI50 (HOP-92 [25]): 1450 nM
GI50 (NCI-H522 [26]): 1250 nM

C=C1C(=O)O[C@H]2[C@H]1CC/C(COC(=O)NCCCn1ccnc1)=C\CC[C@@]1(C)O[C@@H]21 [6f, ((1aR,7aS,10aS,10bS,E)-1a-methyl-8-methylene-9-oxo-1a,2,3,6,7,7a,8,9,10a,10b-decahydrooxireno[2′,3′:9,10]cyclodeca[1,2-b]furan-5-yl)methyl-(3-(1H-imidazol-1-yl)-propyl)carbamate]
melting point: 70 °C

C=C1C(=O)O[C@H]2[C@H]1CC/C(COC(=O)NCCCN1CCOCC1)=C\CC[C@@]1(C)O[C@@H]21 [6g, ((1aR,7aS,10aS,10bS,E)-1a-methyl-8-methylene-9-oxo-1a,2,3,6,7,7a,8,9,10a,10b-decahydrooxireno[2′,3′:9,10]-cyclodeca[1,2-b]furan-5-yl)methyl-(3-morpholinopropyl)carbamate]
melting point: 60 °C

C/C1=C\CC[C@@]2(C)O[C@@H]2[C@H]2OC(=O)[C@H](CN(C)C)[C@@H]2CC1 [DMAPT, dimethylaminoparthenolide]
GI50 (CCRF-CEM [27]): 1990 nM
GI50 (HL-60(TB) [28]): 1580 nM
GI50 (K-562 [29]): 2510 nM
GI50 (MOLT-4 [30]): 3160 nM
GI50 (HOP-92 [31]): 10000 nM
GI50 (NCI-H522 [32]): 2510 nM
GI50 (COLO 205 [33]): 31600 nM
GI50 (HCT-116 [34]): 5010 nM
GI50 (SW-620 [35]): 3980 nM
GI50 (SF-539 [36]): 2510 nM
GI50 (LOX IMVI [37]): 10000 nM
GI50 (M14 [38]): 15800 nM
GI50 (MDA-MB-435 [39]): 7940 nM
GI50 (IGROV1 [40]): 19900 nM
GI50 (OVCAR-3 [41]): 12500 nM
GI50 (ACHN [42]): 15800 nM
GI50 (CAKI-1 [43]): 12500 nM
GI50 (RXF 393 [44]): 15800 nM
GI50 (TK-10 [45]): 3160 nM
GI50 (DU-145 [46]): 5010 nM
GI50 (MCF7 [47]): 5010 nM
GI50 (BT-549 [48]): 5010 nM
GI50 (T-47D [49]): 39800 nM
GI50 (RPMI-8226 [50]): 2510 nM

C=C1C(=O)O[C@H]2[C@H]1CC/C(COC(=O)NCCCn1ccnc1)=C\CC[C@@]1(C)O[C@@H]21 [JVM 58]
cytotoxicity compared to MMB (AML 052308 cells [51]): less active than MMB

C=C1C(=O)O[C@H]2[C@H]1CC/C(COC(=O)NCc1ccccn1)=C\CC[C@@]1(C)O[C@@H]21 [JVM 74]
cytotoxicity compared to MMB (AML 052308 cells [51]): almost equal cytotoxicity to MMB

C=C1C(=O)O[C@H]2[C@H]1CC/C(COC(=O)CCN1CCCCC1)=C\CC[C@@]1(C)O[C@@H]21 [JVM 88]
antileukemic activity compared to MMB (M9 ENL cells): good antileukemic activity compared to MMB
antileukemic activity compared to MMB [52]: good antileukemic activity compared to MMB
antileukemic activity compared to MMB [53]: good antileukemic activity compared to MMB

C=C1C(=O)OC2C1CC/C(CO)=C\CCC1(C)OC21 (centres unmarked) [MMB, Melampomagnolide B]
CC50 (AML 052308 cells [54]): 16000 nM

— patent publication US9469650B2, “Melampomagnolide B derivatives” (BOARD OF TRUSTEES OF THE UNIVERSITY OF ARKANSAS, priority 2013, dated 2016)
